Some test systems named below: MDA-MB-231 breast; SF-295 CNS; A549 NSCLC; 786-0 renal; NCI-H460 lung; HL-60(TB) leukemia; KM12 colon; HOP-62 NSCLC; DU-145 prostate; NCI-H226 lung.
Holding throughout (test): inhibition of tumour cell growth, NCI panel, 48 h

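All cell lines were grown in 96-well plates and treated with compound for 48 hours. GI50 marks 50% less growth. TGI denotes the concentration required for complete inhibition of growth.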 Some results are limits rather than exact numbers.

With `Cc1nc(-c2ccccc2)n2nc(NCCCN3CCOCC3)ncc12`, the GI50 in the assay on MDA-MB-231 breast is over 25 µM; in the assay with SF-295 CNS, over 25 µM; with A549 NSCLC, over 25 µM; in the assay on 786-0 renal it was over 25 µM; in the assay with NCI-H460 lung, 21.2 µM; in the assay on HL-60(TB) leukemia, over 25 µM. Also, the GI50 in the assay with KM12 colon is over 25 µM; in the assay with HOP-62 NSCLC, over 25 µM; in the assay on DU-145 prostate, 22.7 µM; with NCI-H226 lung it was over 8.17 µM. Besides, the TGI in the assay with MDA-MB-231 breast, in the assay with SF-295 CNS, with A549 NSCLC, in the assay with 786-0 renal, in the assay with NCI-H460 lung and with HL-60(TB) leukemia was over 25 µM throughout. Moreover, the TGI in the assay on KM12 colon, in the assay on HOP-62 NSCLC, in the assay with DU-145 prostate and in the assay with NCI-H226 lung was over 25 µM each time.

For the molecule `CCOC(=O)Nc1nc2ccc(OC)cc2s1`, the GI50 with MDA-MB-231 breast, in the assay with SF-295 CNS, in the assay with A549 NSCLC, in the assay on 786-0 renal, with NCI-H460 lung and with HL-60(TB) leukemia was over 100 µM in each case. The GI50 in the assay on KM12 colon, in the assay with HOP-62 NSCLC, in the assay on DU-145 prostate and with NCI-H226 lung was over 100 µM throughout. For the same molecule, the TGI in the assay on MDA-MB-231 breast, with SF-295 CNS, with A549 NSCLC, in the assay on 786-0 renal, in the assay with NCI-H460 lung and with HL-60(TB) leukemia was over 100 µM in each case. Moreover, the TGI with KM12 colon, in the assay on HOP-62 NSCLC, with DU-145 prostate and in the assay with NCI-H226 lung was over 100 µM each time.

As to `CC(=O)Oc1ccc(C23c4ccccc4C2(OC(C)=O)c2cc(OC(C)=O)ccc23)cc1` (stereo not given), the GI50 with MDA-MB-231 breast was 6 µM; with SF-295 CNS, 4.37 µM; in the assay with A549 NSCLC, 17.6 µM; in the assay with 786-0 renal, 6.56 µM; in the assay with NCI-H460 lung, 12.3 µM; in the assay with HL-60(TB) leukemia, 2.41 µM. Besides, the GI50 with KM12 colon was 3.34 µM; in the assay on HOP-62 NSCLC it was 8.78 µM; in the assay with DU-145 prostate it was 6.88 µM; with NCI-H226 lung it was 20.4 µM. Also, the TGI in the assay on MDA-MB-231 breast worked out at 33.1 µM; in the assay on SF-295 CNS, 20.4 µM; in the assay on A549 NSCLC, 70.2 µM; in the assay on 786-0 renal it was 20.5 µM; in the assay on NCI-H460 lung, 44.4 µM; in the assay on HL-60(TB) leukemia, 6.72 µM. The TGI with KM12 colon came to 11.2 µM; in the assay on HOP-62 NSCLC it was 34.5 µM; with DU-145 prostate, 20.7 µM; in the assay with NCI-H226 lung, 63.2 µM.

For `Nc1nonc1-c1nc2cnccc2n1C1CC1`, the GI50 was 8.75 µM in the assay on MDA-MB-231 breast; 7.38 µM with SF-295 CNS; 6.39 µM with A549 NSCLC; 5.44 µM in the assay with 786-0 renal; 6.83 µM in the assay with NCI-H460 lung; 5.32 µM in the assay on HL-60(TB) leukemia. Besides, the GI50 was 6.46 µM in the assay on KM12 colon, 5.33 µM in the assay on HOP-62 NSCLC, 10.6 µM with DU-145 prostate and 0.739 µM with NCI-H226 lung. In addition, the TGI is over 25 µM with MDA-MB-231 breast; over 25 µM in the assay on SF-295 CNS; over 25 µM in the assay with A549 NSCLC; over 25 µM in the assay with 786-0 renal; over 25 µM in the assay on NCI-H460 lung; 14.6 µM in the assay on HL-60(TB) leukemia. In addition, the TGI in the assay with KM12 colon is over 20.9 µM; in the assay with HOP-62 NSCLC it was over 16.8 µM; with DU-145 prostate it was over 25 µM; in the assay with NCI-H226 lung, over 14.6 µM.

The values above are taken from PubChem BioAssay (NCI).
